Target: 5-hydroxytryptamine receptor 1B (Rattus norvegicus, UniProt P28564)
Experiment: Intrinsic affinity towards serotonin receptor from rat frontal cortex by displacement of [3H]5-HT
Type: tissue-based

Chain of 5-hydroxytryptamine receptor 1B (P28564 whole entry): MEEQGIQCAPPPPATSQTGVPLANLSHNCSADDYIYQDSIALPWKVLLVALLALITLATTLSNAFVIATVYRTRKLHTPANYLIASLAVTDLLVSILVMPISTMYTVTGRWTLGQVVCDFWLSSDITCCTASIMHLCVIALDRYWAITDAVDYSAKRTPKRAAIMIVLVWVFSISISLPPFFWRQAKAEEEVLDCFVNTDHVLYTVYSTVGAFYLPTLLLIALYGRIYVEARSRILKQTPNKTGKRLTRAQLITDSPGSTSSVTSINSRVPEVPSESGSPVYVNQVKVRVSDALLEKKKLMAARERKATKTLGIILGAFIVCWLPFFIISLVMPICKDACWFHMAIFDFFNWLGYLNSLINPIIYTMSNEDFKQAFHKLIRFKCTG

| SMILES | Ki |
| --- | --- |
| FC(F)(F)c1ccc2c(c1)N1CCNCC1CC2 (stereo not drawn) | 67 nM |
| FC(F)(F)c1cccc(N2CCNCC2)c1 | 116 nM |
| Clc1cncc(N2CCNCC2)n1 [MK-212] | 3630 nM |

Reference: ChEMBL document CHEMBL1122904, “Bioactive conformation of 1-arylpiperazines at central serotonin receptors” (J Med Chem, 1985)
